Results on three compounds are retold here after patent publication US5416222A, “3-pyrrolidine methanamines wherein the alpha-carbon is substituted by 1 or 2 lower alkyl groups which are intermediates for pyridone-carboxylic acid derivatives” (Daiichi Seiyaku Co., Ltd., priority 1985, dated 1995).

One data set concerns E. coli, NIHJ. Put plainly: antimicrobial activity, MIC, standard process of Japan Society of Chemotherapy. Type of data set: cell-based. An outline of the steps: (§1)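 Minimum growth-inhibitory concentrations were obtained by the Japanese chemotherapy society's designated method and expressed as μg/ml.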
The test system of another data set is Pr. mirabilis, IF03849. The description is as above. Type of data set: cell-based. The conditions noted are these: for minimum growth inhibitory concentration (MIC): Pr. mirabilis. An outline of the steps:
as §1

In a further data set the test system is Pr. vulgaris, 3167. The data set is described as above. Type of data set: cell-based. The conditions noted are these: for minimum growth inhibitory concentration (MIC): Pr. vulgaris. An outline of the steps: as §1
The test system of the next data set is Ps. aeruginosa, 2063. Described as above. In kind it is cell-based. The conditions noted are these: for minimum growth inhibitory concentration (MIC): Ps. aeruginosa. A digest of the protocol:
as §1

The test system of a further data set is Ps. aeruginosa, 2128. The description is as above. In kind it is cell-based. As to conditions: for minimum growth inhibitory concentration (MIC): Ps. aeruginosa. An outline of the steps:
as §1

Another data set relates to Ps. cepacia, IID1340. The data set is described as above. In kind it is cell-based. As to conditions: for minimum growth inhibitory concentration (MIC): Ps. cepacia. An outline of the steps:
as §1

The subject of a further data set is Ps. maltophilia, IID1275. The data set is described as above. In kind it is cell-based. As to conditions: for minimum growth inhibitory concentration (MIC): Ps. maltophilia. A digest of the protocol:
as §1

For a further data set, the system named is S. aureus, 209P. The description is as above. Type of data set: cell-based. A digest of the protocol:
as §1

The next data set has as its system S. epidermidis, 56500. The description is as above. In kind it is cell-based. The conditions noted are these: for minimum growth inhibitory concentration (MIC): S. epidermidis. An outline of the steps: as §1
Another data set has as its system Ser. marcescens, 13001. The description is as above. Type of data set: cell-based. As to conditions: for minimum growth inhibitory concentration (MIC): Ser. marcescens. An outline of the steps:
as §1

Another data set deals with Sh. flexneri, 2a5503. The data set is described as above. In kind it is cell-based. An outline of the steps: as §1
Data set [1] relates to Str. faecalis, ATCC 19433. The data set is described as above. The conditions noted are these: for minimum growth inhibitory concentration (MIC): Str. faecalis. Type of data set: cell-based. A digest of the protocol: as §1
Another data set relates to Str. pyogenes, G-36. Described as above. Type of data set: cell-based. As to conditions: for minimum growth inhibitory concentration (MIC): Str. pyogenes. A digest of the protocol: as §1
The next data set is described as follows: physchem. Type of data set: physicochemical. As to conditions: distilled water, room temperature (23° to 26° C.), 30 minutes agitation; read-out: Water solubility. On the procedure:
(§2) The water-solubility and acute toxicity of the compounds of the present invention and the comparative compounds, were measured. The results obtained are shown hereunder. The water-solubility was measured by the following method.
(i) Preparation of standard solution
About 400 μg of the sample to be measured was accurately weighed (the weight was defined as W μg), and 0.1N NaOH solution was added thereto to bring the whole volume to 50 ml. The UV absorbance of a given amount of the solution was measured and the measured absorbance was defined as A1.
(ii) Preparation of sample to be measured
Distilled water was added to the sample to be measured (fine powder) in such amount that the sample was not completely dissolved but suspended, and then the suspension was vigorously agitated at room temperature (between 23° and 26° C.) for 30 minutes. Insoluble matter of the sample was removed therefrom by filtration, after which 3 ml sample of the filtrate (satulated aqueous solution of the sample) was taken. 3 ml of 0.2N NaOH solution was added to the filtrate sample to bring the total volume to 6 ml (i.e. the filtrate was diluted to 50% concentration.) To 1 ml of the resulting solution, 0.1N NaOH solution was further added to bring the total volume to 25 ml […]. In this connection, degree of dilution was occasionally changed, depending on degree of UV absorbance. The UV absorbance of the given amount of the solution was measured and the resulting absorbance was defined to as A2. Where the number of dilution is N, water-solubility (s) is obtained from the following equation: [formula]

Another data set is described as follows: acute toxicity to mouse. As to conditions: mouse, in vivo, iv; 200 mg/kg. In kind it is in vivo. As to the method:
as §2
*200 mg/kg; i.v, (deaths/total number) As is obvious from the above

The conditions of data set [2]: in words, prior art discussion; cited from earlier work.
Data set [3] relates to Gram-negative microorganisms. The conditions noted are these: in words, prior art discussion; cited from earlier work.
The test system of data set [4] is Gram-positive microorganisms. The conditions noted are these: in words, prior art discussion; cited from earlier work.
Data set [5] relates to Gram-negative microorganisms. Put plainly: antimicrobial activity against Gram-negative microorganisms (in words). In kind it is cell-based. As to the method:
(§3) The antimicrobial activities of the compounds of the present invention were determined according to a standard process designated by the Japan Society of Chemotherapy and the minimum growth inhibitory concentrations (MIC) (μg/ml) the compounds were determined.

Data set [6] deals with Gram-positive microorganisms. Put plainly: antimicrobial activity against Gram-positive microorganisms (in words). Type of data set: cell-based. As to the method: as §3

In brackets after ≈: the same amount, converted by molar mass.

The term solubility denotes how much of the substance goes into solution per volume. As a reminder, the mortality is the share of the test organisms that died. Higher therefore signals a strong lethal effect. Regarding `CCNCC1CCN(c2c(F)cc3c(=O)c(C(=O)O)cn(CC)c3c2F)C1` (stereo not drawn) [Compound C, 1-Ethyl-7-[3-(ethylamino)methyl]-1-pyrolidinyl-6,8-difluoro-1,4-dihydro-4-oxo-3-quinolinecarboxylic acid, reference compound], the MIC in the data set on E. coli, NIHJ (Escherichia coli, read-out: minimum growth inhibitory concentration (MIC)) was not above 0.05 µg/mL; in the data set with Pr. mirabilis, IF03849 (Proteus mirabilis, IF03849, Pr. mirabilis, read-out: minimum growth inhibitory concentration (MIC)), 0.39 µg/mL (≈ 1.03 µM); in the data set on Pr. vulgaris, 3167 (Proteus vulgaris, 3167, Pr. vulgaris, read-out: minimum growth inhibitory concentration (MIC)), 0.2 µg/mL (≈ 0.527 µM); in the data set with Ps. aeruginosa, 2063 (Pseudomonas aeruginosa, 2063, Ps. aeruginosa, read-out: minimum growth inhibitory concentration (MIC)), 0.78 µg/mL (≈ 2.06 µM); with Ps. aeruginosa, 2128 (Pseudomonas aeruginosa, 2128, Ps. aeruginosa, read-out: minimum growth inhibitory concentration (MIC)), 0.39 µg/mL (≈ 1.03 µM); in the data set with Ps. cepacia, IID1340 (Burkholderia cepacia, IID1340, Ps. cepacia, read-out: minimum growth inhibitory concentration (MIC)), 1.56 µg/mL (≈ 4.11 µM). Also, the MIC with Ps. maltophilia, IID1275 (Stenotrophomonas maltophilia, IID1275, Ps. maltophilia, read-out: minimum growth inhibitory concentration (MIC)) is 0.78 µg/mL (≈ 2.06 µM); with S. aureus, 209P (Staphylococcus aureus, read-out: minimum growth inhibitory concentration (MIC)), 0.1 µg/mL (≈ 0.264 µM); with S. epidermidis, 56500 (Staphylococcus epidermidis, 56500, S. epidermidis, read-out: minimum growth inhibitory concentration (MIC)), 0.39 µg/mL (≈ 1.03 µM); with Ser. marcescens, 13001 (Serratia marcescens, 13001, Ser. marcescens, read-out: minimum growth inhibitory concentration (MIC)), 0.2 µg/mL (≈ 0.527 µM); with Sh. flexneri, 2a5503 (Shigella flexneri, read-out: minimum growth inhibitory concentration (MIC)), not above 0.05 µg/mL; in data set [1] (Enterococcus faecalis, ATCC19433, Str. faecalis, read-out: minimum growth inhibitory concentration (MIC)), 0.39 µg/mL (≈ 1.03 µM). Moreover, the MIC in the data set on Str. pyogenes, G-36 (Streptococcus pyogenes, G36, Str. pyogenes, read-out: minimum growth inhibitory concentration (MIC)) turned out to be 0.78 µg/mL (≈ 2.06 µM). For the same compound, in the data set “physchem”, the solubility at 0.5 h was 400 µg/mL (≈ 1050 µM). Besides, the mortality in “acute toxicity to mouse” amounted to 50%. In addition, the “water-solubility (prior art compounds)” value in data set [2] is “good water-solubility”. Further, the “antimicrobial activity against Gram-negative microorganisms (prior art compounds)” value in data set [3] is reported as “a little weak”. Further, the “antimicrobial activity against Gram-positive microorganisms (prior art compounds)” value in data set [4] is reported as “strong antimicrobial activity”.

In the case of `CC(N)C1CCN(c2c(F)cc3c(=O)c(C(=O)O)cn(C4CC4)c3c2F)C1` (single isomer, unassigned) [Example 2, 7-[3-(1-Aminoethyl)-1-pyrrolidinyl]-1-cyclopropyl-6,8-difluoro-1,4-dihydro-4-oxoquinoline-3-carboxylic acid], the “minimum growth inhibitory concentration (MIC)” value with E. coli, NIHJ is not above 0.05 µg/mL; with Pr. mirabilis, IF03849 it was not above 0.05 µg/mL; in the data set on Pr. vulgaris, 3167, not above 0.05 µg/mL; with Ps. aeruginosa, 2063, 0.20 µg/mL; in the data set with Ps. aeruginosa, 2128 it was not above 0.05 µg/mL; in the data set on Ps. cepacia, IID1340, 0.39 µg/mL. Besides, the “minimum growth inhibitory concentration (MIC)” value is 0.10 µg/mL in the data set on Ps. maltophilia, IID1275; not above 0.05 µg/mL in the data set with S. aureus, 209P; not above 0.05 µg/mL with S. epidermidis, 56500; not above 0.05 µg/mL in the data set on Ser. marcescens, 13001; not above 0.05 µg/mL in the data set on Sh. flexneri, 2a5503; not above 0.05 µg/mL in data set [1]. In the data set on Str. pyogenes, G-36, the “minimum growth inhibitory concentration (MIC)” value is not above 0.05 µg/mL. In [5], the “anti-microbial activity against Gram-negative microorganisms” value is on record as “extremely strong anti-microbial activity”. Besides, the “anti-microbial activity against Gram-positive microorganisms” value in [6] is listed as “extremely strong anti-microbial activity”.

With `CCn1cc(C(=O)O)c(=O)c2cc(F)c(N3CCC(C(C)N)C3)c(F)c21` (single isomer, unassigned) [Example 4, 7-[3-(1-Aminoethyl)-1-pyrrolidinyl]-1-ethyl-6,8-difluoro-1,4-dihydro-4-oxoquinoline-3-carboxylic acid], the “minimum growth inhibitory concentration (MIC)” value in the data set on E. coli, NIHJ is not above 0.05 µg/mL; in the data set on Pr. mirabilis, IF03849, 0.20 µg/mL; in the data set with Pr. vulgaris, 3167, 0.05 µg/mL; with Ps. aeruginosa, 2063, 0.20 µg/mL; with Ps. aeruginosa, 2128 it was 0.10 µg/mL; with Ps. cepacia, IID1340 it was 0.78 µg/mL. Besides, the “minimum growth inhibitory concentration (MIC)” value with Ps. maltophilia, IID1275 is 0.39 µg/mL; in the data set with S. aureus, 209P it was not above 0.05 µg/mL; in the data set with S. epidermidis, 56500, not above 0.05 µg/mL; in the data set with Ser. marcescens, 13001 it was 0.10 µg/mL; in the data set with Sh. flexneri, 2a5503 it was not above 0.05 µg/mL; in data set [1], not above 0.05 µg/mL. Besides, the “minimum growth inhibitory concentration (MIC)” value with Str. pyogenes, G-36 was not above 0.05 µg/mL. Also, in data set [5], the “anti-microbial activity against Gram-negative microorganisms” value is “extremely strong anti-microbial activity”. In addition, the “anti-microbial activity against Gram-positive microorganisms” value in data set [6] is recorded as “extremely strong anti-microbial activity”.
